Measurements as given in paper PMC5218480 (PLoS ONE, 2017).

Test system: MV-4-11 cells
Assay: Gene expression microarray analysis (Affymetrix PrimeView) and GSEA
Type: cell-based, human
Parameters: RFU PODN (11730768_x_at) / Fold change /veh PODN (11730768_x_at) / RFU LINC00158 (11744669_a_at) / Fold change /veh LINC00158 (11744669_a_at) / RFU DUSP10 (11751237_a_at) / Fold change /veh DUSP10 (11751237_a_at) / RFU ID3 (11757404_x_at) / Fold change /veh ID3 (11757404_x_at) / RFU PLEKHG5 (11737974_s_at) / Fold change /veh PLEKHG5 (11737974_s_at) / RFU LRRC4B (11730491_at) / Fold change /veh LRRC4B (11730491_at) / RFU GIMAP4 (11747438_a_at) / Fold change /veh GIMAP4 (11747438_a_at) / RFU KRT8 (11758183_x_at) / Fold change /veh KRT8 (11758183_x_at) / RFU CNN1 (11734310_a_at) / Fold change /veh CNN1 (11734310_a_at) / RFU VPS37D (11726825_at) / Fold change /veh VPS37D (11726825_at) / RFU C10orf10 (11716522_x_at) / Fold change /veh C10orf10 (11716522_x_at) / RFU KIR2DL2 /// KIR2DL4 /// KIR2DL5A /// KIR2DL5B /// KIR2DS1 /// KIR2DS2 /// KIR2DS3 /// KIR2DS4 /// KIR3DL3 /// KIR3DL3 /// KIR3DS1 (11738374_at) / Fold change /veh KIR2DL2 /// KIR2DL4 /// KIR2DL5A /// KIR2DL5B /// KIR2DS1 /// KIR2DS2 /// KIR2DS3 /// KIR2DS4 /// KIR3DL3 /// KIR3DL3 /// KIR3DS1 (11738374_at) / RFU C1QL1 (11718748_at) / Fold change /veh C1QL1 (11718748_at) / RFU TMPRSS4 (11747572_a_at) / Fold change /veh TMPRSS4 (11747572_a_at) / RFU HAMP (11756126_x_at) / Fold change /veh HAMP (11756126_x_at) / RFU RNFT2 (11725882_a_at) / Fold change /veh RNFT2 (11725882_a_at) / RFU NR4A2 (11747474_a_at) / Fold change /veh NR4A2 (11747474_a_at) / RFU ABCC12 (11746883_a_at) / Fold change /veh ABCC12 (11746883_a_at) / RFU TMEM136 (11760407_x_at) / Fold change /veh TMEM136 (11760407_x_at) / RFU CLDN22 /// WWC2 (11732394_at) / Fold change /veh CLDN22 /// WWC2 (11732394_at) / RFU HLA-DPB1 (11760878_x_at) / Fold change /veh HLA-DPB1 (11760878_x_at) / RFU SPINT1 (11716480_a_at) / Fold change /veh SPINT1 (11716480_a_at) / RFU GAP43 (11754022_s_at) / Fold change /veh GAP43 (11754022_s_at) / RFU A4GNT (11735810_at) / Fold change /veh A4GNT (11735810_at) / RFU PRB3 (11715151_x_at) / Fold change /veh PRB3 (11715151_x_at) / RFU TUBB4B (11761932_at) / Fold change /veh TUBB4B (11761932_at) / RFU CAPN14 (11732068_a_at) / Fold change /veh CAPN14 (11732068_a_at) / RFU TMCC2 (11721928_a_at) / Fold change /veh TMCC2 (11721928_a_at) / RFU IRGQ (11745062_a_at) / Fold change /veh IRGQ (11745062_a_at) / RFU FAM174B (11720279_a_at) / Fold change /veh FAM174B (11720279_a_at) / RFU TMPRSS4 (11748680_a_at) / Fold change /veh TMPRSS4 (11748680_a_at) / RFU FAM212B (11763350_a_at) / Fold change /veh FAM212B (11763350_a_at) / RFU PLEKHG5 (11743358_a_at) / Fold change /veh PLEKHG5 (11743358_a_at) / RFU ZSCAN30 (11745921_a_at) / Fold change /veh ZSCAN30 (11745921_a_at) / RFU CMKLR1 (11741424_a_at) / Fold change /veh CMKLR1 (11741424_a_at) / RFU LOC101060620 /// MAPK8IP1 (11723275_at) / Fold change /veh LOC101060620 /// MAPK8IP1 (11723275_at) / RFU SPTSSB (11747773_x_at) / Fold change /veh SPTSSB (11747773_x_at) / RFU PRSS12 (11739890_at) / Fold change /veh PRSS12 (11739890_at) / RFU BIN1 (11741810_x_at) / Fold change /veh BIN1 (11741810_x_at) / RFU WNT11 (11732464_a_at) / Fold change /veh WNT11 (11732464_a_at) / RFU C10orf10 (11716521_a_at) / Fold change /veh C10orf10 (11716521_a_at) / RFU C5orf56 (11738089_at) / Fold change /veh C5orf56 (11738089_at) / RFU CYB561 (11721691_x_at) / Fold change /veh CYB561 (11721691_x_at) / RFU ANKRD19P (11752326_a_at) / Fold change /veh ANKRD19P (11752326_a_at) / RFU OR2T12 /// OR2T33 /// OR2T8 (11738714_s_at) / Fold change /veh OR2T12 /// OR2T33 /// OR2T8 (11738714_s_at) / RFU VCAN (11748164_a_at) / Fold change /veh VCAN (11748164_a_at) / RFU JSRP1 (11732532_at) / Fold change /veh JSRP1 (11732532_at) / RFU KRTAP10-11 (11738290_x_at) / Fold change /veh KRTAP10-11 (11738290_x_at) / RFU MYO3A (11730013_a_at) / Fold change /veh MYO3A (11730013_a_at) / RFU EBF3 (11725865_a_at) / Fold change /veh EBF3 (11725865_a_at) / RFU CAMK2N1 (11719241_x_at) / Fold change /veh CAMK2N1 (11719241_x_at) / RFU C5orf56 (11738088_a_at) / Fold change /veh C5orf56 (11738088_a_at) / RFU OLFML3 (11715873_a_at) / Fold change /veh OLFML3 (11715873_a_at) / RFU LOC100653217 /// NTM (11731650_a_at) / Fold change /veh LOC100653217 /// NTM (11731650_a_at) / RFU MAPK11 (11762145_a_at) / Fold change /veh MAPK11 (11762145_a_at) / RFU FIZ1 (11724087_x_at) / Fold change /veh FIZ1 (11724087_x_at) / RFU OASL (11726364_x_at) / Fold change /veh OASL (11726364_x_at) / RFU SOX15 (11748057_x_at) / Fold change /veh SOX15 (11748057_x_at) / RFU CD79A (11719716_a_at) / Fold change /veh CD79A (11719716_a_at) / RFU HIST1H1D (11736915_at) / Fold change /veh HIST1H1D (11736915_at) / RFU CASKIN2 (11723855_a_at) / Fold change /veh CASKIN2 (11723855_a_at) / RFU LOC730098 (11760151_x_at) / Fold change /veh LOC730098 (11760151_x_at) / RFU OR4N2 (11742367_at) / Fold change /veh OR4N2 (11742367_at) / RFU PRRT2 (11749266_a_at) / Fold change /veh PRRT2 (11749266_a_at) / RFU SNX32 (11753110_a_at) / Fold change /veh SNX32 (11753110_a_at) / RFU CDHR5 (11726645_a_at) / Fold change /veh CDHR5 (11726645_a_at) / RFU RCAN1 (11760418_a_at) / Fold change /veh RCAN1 (11760418_a_at) / RFU FAM167A (11723789_a_at) / Fold change /veh FAM167A (11723789_a_at) / RFU FAM26E (11764081_at) / Fold change /veh FAM26E (11764081_at) / RFU ISYNA1 (11749810_s_at) / Fold change /veh ISYNA1 (11749810_s_at) / RFU ACY1 (11761880_at) / Fold change /veh ACY1 (11761880_at) / RFU 11764098_at / Fold change /veh 11764098_at / RFU SAMD14 (11745864_x_at) / Fold change /veh SAMD14 (11745864_x_at) / RFU NPB (11741838_a_at) / Fold change /veh NPB (11741838_a_at) / RFU TMPRSS6 (11731388_a_at) / Fold change /veh TMPRSS6 (11731388_a_at) / RFU KRTAP10-2 (11738614_at) / Fold change /veh KRTAP10-2 (11738614_at) / RFU ARHGAP8 /// PRR5-ARHGAP8 (11727945_x_at) / Fold change /veh ARHGAP8 /// PRR5-ARHGAP8 (11727945_x_at) / RFU KRTAP5-7 /// NADSYN1 (11734609_at) / Fold change /veh KRTAP5-7 /// NADSYN1 (11734609_at) / RFU RASL12 (11751679_a_at) / Fold change /veh RASL12 (11751679_a_at) / RFU CDKN2B (11736163_a_at) / Fold change /veh CDKN2B (11736163_a_at) / RFU PRF1 (11729649_at) / Fold change /veh PRF1 (11729649_at) / RFU, ZNF638 /// ZNF638-IT1 / Fold change vs veh, ZNF638 /// ZNF638-IT1 / RFU, PANK3 / Fold change vs veh, PANK3 / RFU, SH3YL1 / Fold change vs veh, SH3YL1 / RFU, ZEB2 / Fold change vs veh, ZEB2 / RFU, NRIP1 / Fold change vs veh, NRIP1 / RFU, PTTG1IP / Fold change vs veh, PTTG1IP / RFU, CAPN2 / Fold change vs veh, CAPN2 / RFU, MED14 / Fold change vs veh, MED14 / RFU, SNORA58 / Fold change vs veh, SNORA58 / RFU, C1orf63 / Fold change vs veh, C1orf63 / RFU, LRRFIP1 / Fold change vs veh, LRRFIP1 / RFU, NDUFAF7 / Fold change vs veh, NDUFAF7 / RFU, SLC12A2 / Fold change vs veh, SLC12A2 / RFU, IBTK / Fold change vs veh, IBTK / RFU, ESF1 / Fold change vs veh, ESF1 / Fold change vs veh, TMEM50B / RFU, TAOK1 / Fold change vs veh, TAOK1 / RFU, ACBD3 / Fold change vs veh, ACBD3 / RFU, TMA16 / Fold change vs veh, TMA16 / RFU, RWDD3 / Fold change vs veh, RWDD3 / RFU, BCAT1 / Fold change vs veh, BCAT1 / RFU, EDEM3 / Fold change vs veh, EDEM3 / RFU, TMEM33 / Fold change vs veh, TMEM33 / RFU, WDR75 / Fold change vs veh, WDR75 / RFU, AHCTF1 / Fold change vs veh, AHCTF1 / RFU, TFRC / Fold change vs veh, TFRC / RFU, ZDHHC17 / Fold change vs veh, ZDHHC17 / RFU, NOM1 / Fold change vs veh, NOM1 / RFU, ARL8B / Fold change vs veh, ARL8B / RFU, ZBTB11 / Fold change vs veh, ZBTB11 / RFU, TAMM41 / Fold change vs veh, TAMM41 / RFU, KIAA1704 /// LOC100996395 / Fold change vs veh, KIAA1704 /// LOC100996395 / RFU, ING1 / Fold change vs veh, ING1 / RFU, TRMT61B / Fold change vs veh, TRMT61B / RFU, FUBP3 / Fold change vs veh, FUBP3 / RFU, TP53 / Fold change vs veh, TP53 / RFU, TNKS2 / Fold change vs veh, TNKS2 / RFU, ZFP14 / Fold change vs veh, ZFP14 / RFU, ACTR2 / Fold change vs veh, ACTR2 / RFU, PPP3R1 / Fold change vs veh, PPP3R1 / RFU, PIK3R1 / Fold change vs veh, PIK3R1 / RFU, HNRNPA1 / Fold change vs veh, HNRNPA1 / RFU, RNF170 / Fold change vs veh, RNF170 / RFU, ZNF28 / Fold change vs veh, ZNF28 / RFU, RNGTT / Fold change vs veh, RNGTT / RFU, OGT / Fold change vs veh, OGT / RFU, BRD1 / Fold change vs veh, BRD1 / RFU, MARS / Fold change vs veh, MARS / RFU, ZNF655 / Fold change vs veh, ZNF655 / RFU, FAHD1 / Fold change vs veh, FAHD1 / RFU, BDP1 / Fold change vs veh, BDP1 / RFU, LRRCC1 / Fold change vs veh, LRRCC1 / RFU, ARID1A / Fold change vs veh, ARID1A / RFU, ZNF146 / Fold change vs veh, ZNF146 / RFU, ZNF330 / Fold change vs veh, ZNF330 / RFU, GPN3 / Fold change vs veh, GPN3 / RFU, C9orf123 / Fold change vs veh, C9orf123 / RFU, N4BP2L2 / Fold change vs veh, N4BP2L2 / RFU, ARFIP1 / Fold change vs veh, ARFIP1 / RFU, FAM179B / Fold change vs veh, FAM179B / RFU, BCL10 / Fold change vs veh, BCL10 / RFU, UHRF1BP1L / Fold change vs veh, UHRF1BP1L / RFU, BET1 / Fold change vs veh, BET1 / RFU, CNOT2 / Fold change vs veh, CNOT2 / RFU, ZNF268 / Fold change vs veh, ZNF268 / Fold change vs veh, ZNF507 / RFU, DGCR2 / Fold change vs veh, DGCR2 / RFU, WDSUB1 / Fold change vs veh, WDSUB1 / Fold change vs veh, HSP90B1 /// MIR3652 / RFU, ADSS / Fold change vs veh, ADSS / RFU, GK / Fold change vs veh, GK / RFU, ZNF148 / Fold change vs veh, ZNF148 / RFU, TAF9 / Fold change vs veh, TAF9 / RFU, SLC1A5 / Fold change vs veh, SLC1A5 / RFU, SLMO2 / Fold change vs veh, SLMO2 / RFU, ABCC4 / Fold change vs veh, ABCC4 / RFU, LOC101060439 /// RAP1B / Fold change vs veh, LOC101060439 /// RAP1B / RFU, RFX7 / Fold change vs veh, RFX7 / RFU, GTPBP10 / Fold change vs veh, GTPBP10 / RFU, CNEP1R1 / Fold change vs veh, CNEP1R1 / RFU, BIVM-ERCC5 /// ERCC5 / Fold change vs veh, BIVM-ERCC5 /// ERCC5 / RFU, ILF3 / Fold change vs veh, ILF3 / RFU 11762660_at / Fold change /veh 11762660_at / RFU VCAN (11757783_s_at) / Fold change /veh VCAN (11757783_s_at) / RFU DDX43 (11728927_at) / Fold change /veh DDX43 (11728927_at) / RFU KRT8 (11758188_x_at) / Fold change /veh KRT8 (11758188_x_at) / RFU NKD1 (11759106_at) / Fold change /veh NKD1 (11759106_at) / RFU SRD5A1 (11742802_a_at) / Fold change /veh SRD5A1 (11742802_a_at) / RFU TPSAB1 /// TPSB2 (11721975_s_at) / Fold change /veh TPSAB1 /// TPSB2 (11721975_s_at) / RFU GSTM3 (11746129_a_at) / Fold change /veh GSTM3 (11746129_a_at) / RFU IL23R (11737362_x_at) / Fold change /veh IL23R (11737362_x_at) / RFU TMEM51 (11727254_a_at) / Fold change /veh TMEM51 (11727254_a_at) / RFU PIWIL2 (11732686_x_at) / Fold change /veh PIWIL2 (11732686_x_at) / RFU ORM1 (11744905_x_at) / Fold change /veh ORM1 (11744905_x_at) / RFU CCDC152 (11743942_at) / Fold change /veh CCDC152 (11743942_at) / RFU ECM1 (11717891_a_at) / Fold change /veh ECM1 (11717891_a_at) / RFU IL23R (11748794_a_at) / Fold change /veh IL23R (11748794_a_at) / RFU TNFAIP8L3 (11732012_x_at) / Fold change /veh TNFAIP8L3 (11732012_x_at) / RFU MBOAT4 (11741988_at) / Fold change /veh MBOAT4 (11741988_at) / RFU 11764193_at / Fold change /veh 11764193_at / RFU TMEM53 (11763286_at) / Fold change /veh TMEM53 (11763286_at) / RFU MAGEB2 (11727129_at) / Fold change /veh MAGEB2 (11727129_at) / RFU TMEM200A (11744735_a_at) / Fold change /veh TMEM200A (11744735_a_at) / RFU CCDC152 (11751479_a_at) / Fold change /veh CCDC152 (11751479_a_at) / RFU FAM211A (11726209_a_at) / Fold change /veh FAM211A (11726209_a_at) / RFU RGS16 (11746705_a_at) / Fold change /veh RGS16 (11746705_a_at) / RFU VCAN (11755009_s_at) / Fold change /veh VCAN (11755009_s_at) / RFU RHOB (11743442_s_at) / Fold change /veh RHOB (11743442_s_at) / RFU RGS16 (11720943_a_at) / Fold change /veh RGS16 (11720943_a_at) / RFU RGS16 (11720944_at) / Fold change /veh RGS16 (11720944_at) / RFU, VPS4B / Fold change vs veh, VPS4B / RFU, CREB1 / Fold change vs veh, CREB1 / RFU, DNAJC13 / Fold change vs veh, DNAJC13 / RFU, GNAQ / Fold change vs veh, GNAQ / RFU, CDK5R1 / Fold change vs veh, CDK5R1 / RFU, ZRANB3 / Fold change vs veh, ZRANB3 / RFU, CUL4A / Fold change vs veh, CUL4A / RFU, CCNY / Fold change vs veh, CCNY / RFU, UFL1 / Fold change vs veh, UFL1 / RFU, COG3 / Fold change vs veh, COG3 / RFU, DIAPH2 / Fold change vs veh, DIAPH2 / RFU, SKA2 / Fold change vs veh, SKA2 / RFU, AFF3 / Fold change vs veh, AFF3 / RFU, LMF1 / Fold change vs veh, LMF1 / RFU, IPO11 / Fold change vs veh, IPO11 / RFU, DFFB / Fold change vs veh, DFFB / RFU, FOXP1 / Fold change vs veh, FOXP1 / RFU, CARD8 / Fold change vs veh, CARD8 / RFU, STRN3 / Fold change vs veh, STRN3 / RFU, ADK / Fold change vs veh, ADK / RFU, RASSF2 / Fold change vs veh, RASSF2 / RFU, WIPF1 / Fold change vs veh, WIPF1 / RFU, LARP1B / Fold change vs veh, LARP1B / RFU, RASA1 / Fold change vs veh, RASA1 / RFU, RB1 / Fold change vs veh, RB1 / RFU, PPFIA1 / Fold change vs veh, PPFIA1 / RFU, MAT2A / Fold change vs veh, MAT2A / RFU, CCT5 / Fold change vs veh, CCT5 / RFU, WDR92 / Fold change vs veh, WDR92 / RFU, CUX1 / Fold change vs veh, CUX1 / RFU, TTC7A / Fold change vs veh, TTC7A / RFU, TMEM135 / Fold change vs veh, TMEM135 / RFU, DEPTOR / Fold change vs veh, DEPTOR / RFU, CPM / Fold change vs veh, CPM / RFU, DNAJB6 / Fold change vs veh, DNAJB6 / RFU, CACNA2D3 / Fold change vs veh, CACNA2D3 / RFU, DTX4 / Fold change vs veh, DTX4 / RFU, TFCP2 / Fold change vs veh, TFCP2 / RFU, GMCL1 /// GMCL1P1 / Fold change vs veh, GMCL1 /// GMCL1P1 / RFU, AEBP2 / Fold change vs veh, AEBP2 / RFU, SNHG1 /// SNORD22 /// SNORD25 /// SNORD26 /// SNORD27 /// SNORD28 /// SNORD29 /// SNORD31 / Fold change vs veh, SNHG1 /// SNORD22 /// SNORD25 /// SNORD26 /// SNORD27 /// SNORD28 /// SNORD29 /// SNORD31 / Fold change (Aza/veh), C12orf56 (ProbeSet 11735607_a_at) / Fold change (ACY-1035/veh), C12orf56 (ProbeSet 11735607_a_at) / Fold change (Aza/veh), FGFR1OP (ProbeSet 11751329_s_at) / Fold change (ACY-1035/veh), FGFR1OP (ProbeSet 11751329_s_at) / Fold change (Aza/veh), VPS36 (ProbeSet 11739960_a_at) / Fold change (ACY-1035/veh), VPS36 (ProbeSet 11739960_a_at) / RFU SYPL1 (11715823_x_at) / Fold change /veh SYPL1 (11715823_x_at) / RFU IGFBP7 (11715501_s_at) / Fold change /veh IGFBP7 (11715501_s_at) / RFU REEP3 (11722064_at) / Fold change /veh REEP3 (11722064_at) / RFU IGLL1 (11728026_x_at) / Fold change /veh IGLL1 (11728026_x_at): dose or concentration left out as unconfirmed
Conditions: ProbeSet 11728879_at; LIST B

## Nc1ncn([C@@H]2O[C@H](CO)[C@@H](O)[C@H]2O)c(=O)n1 [azacitidine]
  Fold change vs veh, PPP3R1: 0.88
